Results from patent publication US20110105408A1, “THERAPEUTIC PEPTIDES” (INTER-K PTY LIMITED, priority 2008, published 2011).
“Also recorded” adds a separate entry of the source.

Assays:
HT29 colon cancer cells = experiment: Cell proliferation (MTT) assay, HT29 cells; format: cell-based, human
Method: Single cell suspensions of viable trypsinised cells were seeded into 96-well tissue culture plates at a density of 2×10^3 cells per well in a volume of 100 μl of a suitable culture media with foetal calf serum (FCS) (e.g., Dulbecco's Modified Eagles Medium (DMEM), with 10% v/v FCS, glutamine, Hepes, and antibiotics). A set of triplicate wells was prepared for each concentration of the peptide dendrimer being tested. Additional sample wells containing untreated cells or media alone were set up in each treatment plate and processed in parallel as reference controls. A zero-time plate of untreated cells and media-alone wells was simultaneously prepared and an MTT assay carried out on this plate at the time of test peptide dendrimer addition to treatment plates. All plates were cultured for 24 hours before addition of the test dendrimer. To prepare the MTT solution 100 mg of MTT (3-(4,5-dimethylthiazolyl-2)-2,5-diphenyltetrazolium bromide) (Cat #. M-128, Sigma, St Louis Mo.), is mixed with 20 ml of PBS at pH 7.4. The resulting solution is filter sterilized (0.2 μM syringe filter) and stored at 4° C. protected from light until use. MTT substrate is cleaved in growing cells to yield a water insoluble salt. After solubilisation of the salt crystals, a coloured product is produced the measurement of which allows quantitation of the proliferative activity of the cultured cells.
Appropriate concentrations of the test dendrimer were prepared by dilution of freshly prepared sterile 1 mM stock solutions into cell culture media to give a final well volume of 200 μl containing 10% v/v FCS. The zero-plate was processed by addition of MTT at this time. Cell culture was continued for a further 24 or 48 hours before addition of 20 μl of MTT in PBS (5 mg/ml, 0.2 um filter sterilised). The MTT cell proliferation assay measures cell proliferation rate and, in instances where cell viability is compromised, the assay indicates a comparative reduction in cell viability. After a 3 hour incubation in the presence of MTT (5% CO2 in air at 37° C.), plates were centifuged at 450 g for 5 minutes, supernatant removed by gentle suction and precipitated tetrazolium salt resuspended into 150 μl DMSO:glycine (0.1 M glycine, 0.1 M NaCl pH 10.5) (6:1 v/v) solution. Plates were gently vortexed to complete solubilisation of crystalline material and absorbance was read at 540-550 nm using a microplate reader. Sample data were processed to determine the comparative growth of treated samples relative to untreated controls.
HT29 cells were cultured for 48 hours in the presence of selected dendrimers and proliferation of the cells was assessed by MTT assay essentially as described in Example 1.2. The results were calculated as percentage proliferation of control cells (not treated with dendrimer).

[1] = tested on: phospho-ERK in HT29 cells; experiment: Phospho-ERK ELISA (FACE ERK1/2 kit) in HT29 cells; format: cell-based, human
Method: HT29 cells were harvested using 0.5% trypsin EDTA (Invitrogen) and 5000 cells were resuspended into 200 μL, and added to each well of a clear NUNC tissue culture treated 96 well plate (NUNC). Cells were seeded in DMEM media (Invitrogen) supplemented with 10% v/v foetal calf serum (FCS, Invitrogen), 1% L-Glutamine (Invitrogen) and 2% 1M HEPES buffer solution (Invitrogen). Cells were then incubated overnight at 37° C. The following day, the growth medium was replaced with 100 μL of serum-free DMEM supplemented with 1% L-glutamine and 2% 1M HEPES buffer solution, and incubated for a further 24 hours at 37° C. Dendrimers were added to test wells in serum free medium to provide final concentrations of the dendrimers ranging from 0.1-20 μLA. The total volume of each well was 200 uL, and cells were incubated at 37° C. for times ranging from 5 minutes to 4 hours. In those studies in which cells were subjected to stimulation by serum, 22 μL FCS (10% v/v final concentration) was added to wells for the final ten minutes of the culture period at 37° C. Serum-free media (SFM) only (22 μL) was added to non-serum stimulated cells.
Phospho-ERK levels were determined using the FACE ERK1/2 ELISA kit according to the manufacturer's instructions (Active Motif, kit obtained from Australian Biosearch, WA, Australia). Briefly, media was replaced and cells fixed with 4% formaldehyde in PBS, and after a 1 hour with antibody blocking buffer (supplied), the primary phospho-ERK or total-ERK antibody was added and incubated overnight at 4° C. Antibody dilution buffer only was added to control test wells containing no primary antibody. The next day, HRP-conjugated secondary antibody was added for one hour before plates were developed and the absorbance measured at 450 nm using a Labsystems Multiskan EX microplate reader (Labsystems, Thermo Labsystems, UK).
The effectiveness of the peptide dendrimer IK248 described in Example 2 in inhibiting growth factor mediated activation of ERK in HT29 cancer cells (i.e., (FCS stimulated) compared to various agents comprising the polypeptide RSKAKNPLYR (SEQ ID No. 6) coupled to different peptide facilitator moieties for facilitating passage of the polypeptide across the plasma cell membrane into the cytosol of the cells was evaluated. Phospho-ERK levels in the cells following treatment with 5 μM IK248 (Dend 8) for 1 hour or polypeptide-facilitator moiety agents (each at 5 μM for the same duration) were measured essentially as described in Example 1.3. The facilitator moieties utilised were the signal peptide fragment AAVALLPAVLLALLA (SEQ ID No. 16), the TAT-G peptide GRKKRRQRRRPPQG (SEQ ID No. 17), a modified pentratin sequence Tr-Pen RRQKWKKG (SEQ ID No. 18), and the penetratin peptide RQIKIWFQNRRMKWKKCS—SC (SEQ ID No. 19) wherein S—S indicates a disulphide bridge between the adjacent cysteine residues.
The peptide RSKAKNPLYR (SEQ ID. No. 6) or peptide dendrimers of the type illustrated in FIG. 3 comprising lysine branching units presenting either 8 (IK248) or 10 (IK248B) monomer units of the peptide RSKAKNPLYR (SEQ ID No. 6) were utilised in this study. Phospho-ERK levels were evaluated by ELISA utilising an Active Motif FACE ERK1/2 ELISA kit (Australian Biosearch, WA, Australia) as described in Example 1.3.

Question: `CC(C)C[C@H](NC(=O)[C@@H]1CCCN1C(=O)[C@H](CC(N)=O)NC(=O)[C@H](CCCCN)NC(=O)[C@H](C)NC(=O)[C@H](CCCCN)NC(=O)[C@H](CO)NC(=O)[C@@H](N)CCCNC(=N)N)C(=O)N[C@@H](Cc1ccc(O)cc1)C(=O)N[C@@H](CCCNC(=N)N)C(=O)NCCCC[C@H](NC(=O)[C@H](CCCCNC(=O)[C@H](CCCCNC(=O)[C@H](CCCNC(=N)N)NC(=O)[C@H](Cc1ccc(O)cc1)NC(=O)[C@H](CC(C)C)NC(=O)[C@@H]1CCCN1C(=O)[C@H](CC(N)=O)NC(=O)[C@H](CCCCN)NC(=O)[C@H](C)NC(=O)[C@H](CCCCN)NC(=O)[C@H](CO)NC(=O)[C@@H](N)CCCNC(=N)N)NC(=O)[C@H](CCCNC(=N)N)NC(=O)[C@H](Cc1ccc(O)cc1)NC(=O)[C@H](CC(C)C)NC(=O)[C@@H]1CCCN1C(=O)[C@H](CC(N)=O)NC(=O)[C@H](CCCCN)NC(=O)[C@H](C)NC(=O)[C@H](CCCCN)NC(=O)[C@H](CO)NC(=O)[C@@H](N)CCCNC(=N)N)NC(=O)[C@H](CCCCNC(=O)[C@H](CCCNC(=N)N)NC(=O)[C@H](Cc1ccc(O)cc1)NC(=O)[C@H](CC(C)C)NC(=O)[C@@H]1CCCN1C(=O)[C@H](CC(N)=O)NC(=O)[C@H](CCCCN)NC(=O)[C@H](C)NC(=O)[C@H](CCCCN)NC(=O)[C@H](CO)NC(=O)[C@@H](N)CCCNC(=N)N)NC(=O)[C@H](CCCNC(=N)N)NC(=O)[C@H](Cc1ccc(O)cc1)NC(=O)[C@H](CC(C)C)NC(=O)[C@@H]1CCCN1C(=O)[C@H](CC(N)=O)NC(=O)[C@H](CCCCN)NC(=O)[C@H](C)NC(=O)[C@H](CCCCN)NC(=O)[C@H](CO)NC(=O)[C@@H](N)CCCNC(=N)N)C(=O)NCCCC[C@H](NC(=O)[C@H](CCCCNC(=O)[C@H](CCCNC(=N)N)NC(=O)[C@H](Cc1ccc(O)cc1)NC(=O)[C@H](CC(C)C)NC(=O)[C@@H]1CCCN1C(=O)[C@H](CC(N)=O)NC(=O)[C@H](CCCCN)NC(=O)[C@H](C)NC(=O)[C@H](CCCCN)NC(=O)[C@H](CO)NC(=O)[C@@H](N)CCCNC(=N)N)NC(=O)[C@H](CCCCNC(=O)[C@H](CCCCNC(=O)[C@H](CCCNC(=N)N)NC(=O)[C@H](Cc1ccc(O)cc1)NC(=O)[C@H](CC(C)C)NC(=O)[C@@H]1CCCN1C(=O)[C@H](CC(N)=O)NC(=O)[C@H](CCCCN)NC(=O)[C@H](C)NC(=O)[C@H](CCCCN)NC(=O)[C@H](CO)NC(=O)[C@@H](N)CCCNC(=N)N)NC(=O)[C@H](CCCNC(=N)N)NC(=O)[C@H](Cc1ccc(O)cc1)NC(=O)[C@H](CC(C)C)NC(=O)[C@@H]1CCCN1C(=O)[C@H](CC(N)=O)NC(=O)[C@H](CCCCN)NC(=O)[C@H](C)NC(=O)[C@H](CCCCN)NC(=O)[C@H](CO)NC(=O)[C@@H](N)CCCNC(=N)N)NC(=O)[C@H](CCCCNC(=O)[C@H](CCCNC(=N)N)NC(=O)[C@H](Cc1ccc(O)cc1)NC(=O)[C@H](CC(C)C)NC(=O)[C@@H]1CCCN1C(=O)[C@H](CC(N)=O)NC(=O)[C@H](CCCCN)NC(=O)[C@H](C)NC(=O)[C@H](CCCCN)NC(=O)[C@H](CO)NC(=O)[C@@H](N)CCCNC(=N)N)NC(=O)[C@H](CCCNC(=N)N)NC(=O)[C@H](Cc1ccc(O)cc1)NC(=O)[C@H](CC(C)C)NC(=O)[C@@H]1CCCN1C(=O)[C@H](CC(N)=O)NC(=O)[C@H](CCCCN)NC(=O)[C@H](C)NC(=O)[C@H](CCCCN)NC(=O)[C@H](CO)NC(=O)[C@@H](N)CCCNC(=N)N)C(=O)NCCC(N)=O` [IK248B] was tested. Which “inhibition of proliferation of HT29 cells (MTT)” value (HT29 colon cancer cells; 48 hours culture with dendrimer) did it give?
Answer: The value was “proliferation of the cells was inhibited; also recorded: more effective than dendrimer IK248”.

Question: What about the “dendrimer concentration required for total kill” value (HT29 colon cancer cells; HT29 cells, 48 hours, MTT) of the same compound?
Answer: The value was 10 µM.

Question: And the “phospho-ERK levels relative to control cells, dose response” value ([1]; HI FCS stimulated HT29 cells)?
Answer: The value was “decreased relative to control cells with progressively increasing dosages”.

Question: And the “ERK activity (as indicated by phospho-ERK levels)” value ([1]; HI FCS stimulated HT29 cells, 10 μM (data not shown))?
Answer: The value was “entirely inhibited”.

Question: What about the phospho-ERK levels ([1]; HI FCS stimulated HT29 cells, dose of 5 μM) of the same compound?
Answer: Its phospho-ERK levels is “almost totally abrogated”.

Question: What about the “phospho-ERK levels in HT29 cells compared to normal skin fibroblast cells (selectivity for cancer cells)” value ([1]; data not shown) of the same compound?
Answer: Its value is “significantly reduced compared to normal skin fibroblast cells”.

Question: And the “basal phospho-ERK level relative to control cells” value ([1]; not FCS stimulated, 0.1, 0.5, 1 and 5 μM, 4 hr incubation)?
Answer: The value was “did not stimulate basal phospho-ERK levels”.
